The record followed here is patent US20190352358A1, “COMPOUNDS, COMPOSITIONS AND USES THEREOF FOR IMPROVEMENT OF BONE DISORDERS” (ALIZE PHARMA III SAS, priority 2017, published 2019).

SMILES strings stand for the structures. Residues, ends and D or L forms follow the SMILES beside them. *: point of attachment. Stearoyl = CCCCCCCCCCCCCCCCCC(=O)*

A short description of data set [1]: Stability of HBD1 fragments in human plasma. The format is in vitro ADME. The method, then: The peptides were spiked at 1 μg/mL (peptide backbone) into pre-warmed human K2EDTA plasma (at 37° C.) and incubated for up to 48 hours. Aliquots of plasma were extracted at specific time points (0, 24 and 48 hours post spike). Extraction was performed with acetonitrile:water (75:25, v/v) for HBD1 (1-13), HBD1 (1-13) with palmitic acid at the N-terminus (C16:0), HBD1 (3-11) with palmitic acid at the N-terminus (C16:0)) and HBD1 (3-11) with stearic acid at the N-terminus (C18:0) or with acetonitrile:water:formic acid (75:25:0.1, v/v/v) for HBD1 (3-11) and cyclic HBD1 (3-11). The peptides were analyzed using developed LC (C18 reverse phase column)—positive ion electrospray MS/MS methods specific to each peptide. The peak area at each time point was expressed as a percentage of the value obtained for the t=0 minutes time point.

Data set [2] can be described thus: Pharmacokinetics of acylated analogs in male Sprague Dawley rats after subcutaneous injection (Example 11). The format is in vivo. Details: AUC(0-t): concentration or dose not given beside the values. The conditions noted are these: sc, rat, Table 24. The method, then: The peptides were reconstituted in saline (0.9% NaCl). Three male Sprague Dawley rats (approximately 6 weeks of age) were used per group. Subcutaneous doses were administered into the right flank of each animal […]. Following dosing, serial whole blood samples (ca. 0.3 mL) were collected from retro-orbital sinus into K2EDTA treated containers. Following each blood sample collection, samples were placed into a cooling block at 4° C. Samples were collected prior to dosing then at 15 and 30 minutes then 1, 2, 4, 6, 8 and 24 hours post dose for subcutaneous injection. Blood samples were centrifuged at 3500×rpm for 10 minutes at 4° C. and resultant plasma aspirated off into clean fully, labelled tubes. Plasma samples were snap frozen following aspiration then stored at −80° C. The peptides were extracted with acetonitrile:water (75:25, v/v) and analyzed using developed LC-MS/MS methods as described in Example 9. The limits of detection of these methods are 0.003 nmol/mL for HBD1 (1-13) with palmitic acid at the N-terminus (C16:0), 0.0008 nmol/mL for HBD1 (3-11) with palmitic acid at the N-terminus (C16:0), 0.0070 nmol/mL for HBD1 (3-11) with stearic acid at the N-terminus (C18:0), and 0.0015 nmol/mL for HBD1 (3-11) with myristic acid at the N-terminus (C14:0), HBD1 (3-11) with arachidic acid at the N-terminus (C20:0), HBD1 (3-11) with palmitic diacid at the N-terminus (C16:0-diacid), HBD1 (3-11) with palmitic acid at the C-terminus (C16:0). All values below these limits of quantification were considered as zero.

Data set [3] deals with MC-3T3 E1 clone 4 (CL4) osteoblast cells. Briefly: Osteocalcin expression during in vitro osteoblast differentiation, acylated and cyclic analogs (Example 7). The data set is classed as cell-based. The conditions noted are these: Table 18; test peptide 1 μg/L; 18-21 day interval. The protocol: (§1) Each acylated peptide was tested in a biologic assay measuring its ability to stimulate differentiation of osteoblast cells over a 18-21 day interval as assessed by the stimulation of osteocalcin protein synthesis. MC-3T3 E1 clone 4 (CL4) osteoblast cells were obtained from ATCC (Manassas, Va., USA). Cells were cultured in α-MEM containing 10% fetal bovine serum (FBS; Thermo Fisher Scientific, Pittsburgh, Pa., USA). After confluency, culture medium was changed to differentiation medium (DM), which contained 10% FBS plus 50 μg/mL ascorbic acid and 4 mM β-glycerol phosphate, with or without a test peptide (1 μg/L). Fresh DM, with or without test peptide, was applied every 72 hours. The cell monolayers were lysed in a modified radioimmunoprecipitation assay (RIPA) buffer. Total cellular protein in the lysates was determined using BCA (Thermo Fisher Scientific, Rockford, Ill., USA). Cell proteins are separated on SDS-PAGE gel and transferred on PVDF membrane for analysis. Osteocalcin detection was performed using anti-osteocalcin antibody at 1:200 dilution (Santa Cruz Biotechnology, Inc, Santa Cruz, Calif., USA) and visualized using enhanced chemiluminescence (Thermo Fisher Scientific, Rockford, Ill., USA).
In a separate experiment, the effect of cyclization was examined on of the HBD1 (3-11) peptide. The cyclic HBD1 (3-11) was synthetized and tested on the in vitro osteoblast differentiation assay.

The test system is the same in data set [4]. As to the kind of experiment: Osteocalcin expression during in vitro osteoblast differentiation, various doses of analogs (Example 8). The conditions noted are these: Table 19, 18 day interval. The format is cell-based. The method, then: as §1, with “The peptides were” for “Each acylated peptide was”, “tested at different concentrations” for “tested”, “their” for “its”, “18” for “18-21”, “an ascending dose of the peptide.” for “a test peptide (1 μg/L).”, “the” for “test”

On to `CCCCCCCCCCCCCCCCCC(=O)N[C@@H](Cc1c[nH]cn1)C(=O)N[C@@H](CC(C)C)C(=O)NCC(=O)N[C@@H](CC(C)C)C(=O)N[C@@H](CCC(=O)O)C(=O)N[C@@H](CCC(=O)O)C(=O)N1CCC[C@H]1C(=O)N[C@@H](CCCCN)C(=O)N[C@@H](CCCCN)C(=O)O` [compound 73] (Stearoyl-HLGLEEPKK-OH), for which, in data set [1] (24 and 48 hours incubation at 37° C.), the “stability in human plasma (in words)” value is “similar”. Moreover, the fraction remaining at 24 h, 1 μg/mL in data set [1] (human, human K2EDTA plasma, spiked at 1 μg/mL, 37° C., 24 hours, read-out: Remaining parent peptide in human plasma 24 hours post spike) was 89%. Moreover, the fraction remaining at 48 h, 1 μg/mL in data set [1] (human, human K2EDTA plasma, spiked at 1 μg/mL, 37° C., 48 hours, read-out: Remaining parent peptide in human plasma 48 hours post spike) came to 91%. This molecule also gave an area under the curve AUC(0-t) in data set [2] (male, Sprague Dawley, plasma) of 4.81 µM·h. Besides, in data set [2] (male, Sprague Dawley, plasma), the Cmax was 540 nM. Further, the Tmax in data set [2] (male, Sprague Dawley, plasma) was found to be 4 h. In addition, the “Tlast (last time point with detectable peptide)” value in data set [2] turned out to be 8 h. The “Fold increase vs DM ± SE” value in data set [3] is reported as 2.93 ± 0.16 fold. The figures for the “Fold increase vs DM ± SD” value in data set [4] (dose 1.0 μM), in data set [4] (dose 2.0 μM) and in data set [4] (dose 3.0 μM) were 3.46 ± 0.47 fold, 4.48 ± 0.07 fold and 5.66 ± 0.45 fold, respectively.
